biological target: CDK2/Cyclin E1 (Homo sapiens (Human), UniProt P24941); assay: CDK2/Cyclin E1 HTRF enzyme activity assay; assay type: biochemical; settings: 1 mM ATP
Protocol: Assays are conducted in white 384-well polystyrene plates in a final reaction volume of 8 μL. […] HTRF signals are read after 1 hour at room temperature on a PHERAstar FS plate reader (BMG Labtech). Data is analyzed with IDBS XLFit and GraphPad Prism 5.0 software using a three or four parameter dose response curve to determine IC50 for each compound.

IC50, < 50 nM:
CS(=O)(=O)N1CCC(Nc2ncc(C#N)c(-c3cnn(-c4ccc(CN[C@H]5CCC[C@H](O)C5)cc4Cl)c3)n2)CC1 [Example 181, 4-(1-(2-Chloro-4-((((1S,3S)-3-hydroxycyclohexyl)amino)methyl)phenyl)-1H-pyrazol-4-yl)-2((1-(methylsulfonyl)piperidin-4-yl)amino)pyrimidine-5-carbonitrile]
CS(=O)(=O)N1CCC(Nc2ncc(C#N)c(-c3cnn(-c4ccc(CN[C@H]5CC[C@H](O)CC5)cc4Cl)c3)n2)CC1 [Example 182, 4-(1-(2-Chloro-4-((((1r,4r)-4-hydroxycyclohexyl)amino)methyl)phenyl)-1H-pyrazol-4-yl)-2-((1-(methylsulfonyl)piperidin-4-yl)amino)pyrimidine-5-carbonitrile]
CS(=O)(=O)N1CCC(Nc2ncc(C#N)c(-c3cnn(-c4ccc(CNC5CCC(C#N)CC5)cc4Cl)c3)n2)CC1 (stereo not drawn) [Example 183, 4-(1-(2-Chloro-4-(((4-cyanocyclohexyl)amino)methyl)phenyl)-1H-pyrazol-4-yl)-2-((1-(methylsulfonyl)piperidin-4-yl)amino)pyrimidine-5-carbonitrile]
CN(C)C1CCCCC1NCc1ccc(-n2cc(-c3nc(NC4CCN(S(C)(=O)=O)CC4)ncc3C#N)cn2)c(Cl)c1 (stereo not drawn) [Example 184, 4-(1-(2-Chloro-4-(((2-(dimethylamino)cyclohexyl)amino)methyl)phenyl)-1H-pyrazol-4-yl)-2-((1-(methylsulfonyl)piperidin-4-yl)amino)pyrimidine-5-carbonitrile]
CS(=O)(=O)N1CCC(Nc2ncc(C#N)c(-c3cnn(-c4ccc(CN[C@H]5CC[C@@H](S(C)(=O)=O)CC5)cc4Cl)c3)n2)CC1 [Example 185, 4-(1-(2-Chloro-4-((((cis)-4-(methylsulfonyl)cyclohexyl)amino)methyl)phenyl)-1H-pyrazol-4-yl)-2-((1-(methylsulfonyl)piperidin-4-yl)amino)pyrimidine-5-carbonitrile]
CS(=O)(=O)N1CCC(Nc2ncc(C#N)c(-c3cnn(-c4ccc(CN[C@@H]5CCC[C@H]5O)cc4Cl)c3)n2)CC1 [Example 186, 4-(1-(2-Chloro-4-((((1R,2R)-2-hydroxycyclopentyl)amino)methyl)phenyl)-1H-pyrazol-4-yl)-2-((1-(methylsulfonyl)piperidin-4-yl)amino)pyrimidine-5-carbonitrile]
CS(=O)(=O)N1CCC(Nc2ncc(C#N)c(-c3cnn(-c4ccc(CN[C@H]5CCC[C@@H]5O)cc4Cl)c3)n2)CC1 [Example 187, 4-(1-(2-Chloro-4-((((1S,2S)-2-hydroxycyclopentyl)amino)methyl)phenyl)-1H-pyrazol-4-yl)-2-((1-(methylsulfonyl)piperidin-4-yl)amino)pyrimidine-5-carbonitrile]
CS(=O)(=O)N1CCC(Nc2ncc(C#N)c(-c3cnn(-c4ccc(CN[C@H]5CC[C@@H](O)C5)cc4Cl)c3)n2)CC1 [Example 188, 4-(1-(2-Chloro-4-((((1S,3R)-3-hydroxycyclopentyl)amino)methyl)phenyl)-1H-pyrazol-4-yl)-2-((1-(methylsulfonyl)piperidin-4-yl)amino)pyrimidine-5-carbonitrile]
CS(=O)(=O)N1CCC(Nc2ncc(C#N)c(-c3cnn(-c4ccc(CN[C@@H]5CC[C@@H](O)C5)cc4Cl)c3)n2)CC1 [Example 189, 4-(1-(2-Chloro-4-((((1R,3R)-3-hydroxycyclopentyl)amino)methyl)phenyl)-1H-pyrazol-4-yl)-2-((1-(methylsulfonyl)piperidin-4-yl)amino)pyrimidine-5-carbonitrile]
CS(=O)(=O)N1CCC(Nc2ncc(C#N)c(-c3cnn(-c4ccc(CN[C@H]5C[C@@](C)(O)C5)cc4Cl)c3)n2)CC1 [Example 190, 4-(1-(2-Chloro-4-((((1s,3s)-3-hydroxy-3-methylcyclobutyl)amino)methyl)phenyl)-1H-pyrazol-4-yl)-2-((1-(methylsulfonyl)piperidin-4-yl)amino)pyrimidine-5-carbonitrile]
CS(=O)(=O)N1CCC(Nc2ncc(C#N)c(-c3cnn(-c4ccc(CN[C@H]5C[C@](C)(O)C5)cc4Cl)c3)n2)CC1 [Example 191, 4-(1-(2-Chloro-4-((((1r,3r)-3-hydroxy-3-methylcyclobutyl)amino)methyl)phenyl)-1H-pyrazol-4-yl)-2-((1-(methylsulfonyl)piperidin-4-yl)amino)pyrimidine-5-carbonitrile]
CCS(=O)(=O)N1CCC(Nc2ncc(C#N)c(-c3cnn(-c4ccc(CN[C@H]5C[C@@](C)(O)C5)cc4Cl)c3)n2)CC1 [Example 192, 4-(1-(2-Chloro-4-((((1s,3s)-3-hydroxy-3-methylcyclobutyl)amino)methyl)phenyl)-1H-pyrazol-4-yl)-2-((1-(ethylsulfonyl)piperidin-4-yl)amino)pyrimidine-5-carbonitrile]
CCS(=O)(=O)N1CCC(Nc2ncc(C#N)c(-c3cnn(-c4ccc(CN[C@H]5C[C@](C)(O)C5)cc4Cl)c3)n2)CC1 [Example 193, 4-(1-(2-Chloro-4-((((1r,3r)-3-hydroxy-3-methylcyclobutyl)amino)methyl)phenyl)-1H-pyrazol-4-yl)-2-((1-(ethylsulfonyl)piperidin-4-yl)amino)pyrimidine-5-carbonitrile]
CCn1cc(CNCc2ccc(-n3cc(-c4nc(NC5CCN(S(C)(=O)=O)CC5)ncc4C#N)cn3)c(Cl)c2)cn1 [Example 194, 4-(1-(2-Chloro-4-((((1-ethyl-1H-pyrazol-4-yl)methyl)amino)methyl)phenyl)-1H-pyrazol-4-yl)-2-((1-(methylsulfonyl)piperidin-4-yl)amino)pyrimidine-5-carbonitrile]
CS(=O)(=O)N1CCC(Nc2ncc(C#N)c(-c3cnn(-c4ccc(CN[C@@H]5CCCOC5)cc4Cl)c3)n2)CC1 [Example 195, (R)-4-(1-(2-Chloro-4-(((tetrahydro-2H-pyran-3-yl)amino)methyl)phenyl)-1H-pyrazol-4-yl)-2-((1-(methylsulfonyl)piperidin-4-yl)amino)pyrimidine-5-carbonitrile]
CS(=O)(=O)N1CCC(Nc2ncc(C#N)c(-c3cnn(-c4ccc(CN[C@H]5CCCOC5)cc4Cl)c3)n2)CC1 [Example 196, (S)-4-(1-(2-Chloro-4-(((tetrahydro-2H-pyran-3-yl)amino)methyl)phenyl)-1H-pyrazol-4-yl)-2-((1-(methylsulfonyl)piperidin-4-yl)amino)pyrimidine-5-carbonitrile]
CCOC(=O)N1CCC(NCc2ccc(-n3cc(-c4nc(NC5CCN(S(C)(=O)=O)CC5)ncc4C#N)cn3)c(Cl)c2)CC1 [Example 197, Ethyl 4-((3-chloro-4-(4-(5-cyano-2-((1-(methylsulfonyl)piperidin-4-yl)amino)pyrimidin-4-yl)-1H-pyrazol-1-yl)benzyl)amino)piperidine-1-carboxylate]
CS(=O)(=O)N1CCC(Nc2ncc(C#N)c(-c3cnn(-c4ccc(CNCCOC(F)(F)F)cc4Cl)c3)n2)CC1 [Example 199, 4-(1-(2-Chloro-4-(((2-(trifluoromethoxy)ethyl)amino)methyl)phenyl)-1H-pyrazol-4-yl)-2-((1-(methylsulfonyl)piperidin-4-yl)amino)pyrimidine-5-carbonitrile]
CS(=O)(=O)CCNCc1ccc(-n2cc(-c3nc(NC4CCN(S(C)(=O)=O)CC4)ncc3C#N)cn2)c(Cl)c1 [Example 200, 4-(1-(2-Chloro-4-(((2-(methylsulfonyl)ethyl)amino)methyl)phenyl)-1H-pyrazol-4-yl)-2-((1-(methylsulfonyl)piperidin-4-yl)amino)pyrimidine-5-carbonitrile]
CC(C)(O)Cn1cc(-c2nc(N[C@H]3CCN(S(=O)(=O)CCCN4CCOCC4)C[C@H]3F)ncc2C(F)(F)F)cn1 [Example 201, 1-(4-(2-(((3R,4S)-3-Fluoro-1-((3-morpholinopropyl)sulfonyl)piperidin-4-yl)amino)-5-(trifluoromethyl)pyrimidin-4-yl)-1H-pyrazol-1-yl)-2-methylpropan-2-ol]
CCN(CC)CCCS(=O)(=O)N1CC[C@H](Nc2ncc(C(F)(F)F)c(-c3cnn(CC(C)(C)O)c3)n2)[C@H](F)C1 [Example 202, 1-(4-(2-(((3R,4S)-1-((3-(Diethylamino)propyl)sulfonyl)-3-fluoropiperidin-4-yl)amino)-5-(trifluoromethyl)pyrimidin-4-yl)-1H-pyrazol-1-yl)-2-methylpropan-2-ol]
CC(C)(O)Cn1cc(-c2nc(N[C@H]3CCN(S(=O)(=O)CCCN4CCCC4)C[C@H]3F)ncc2C(F)(F)F)cn1 [Example 203, 1-(4-(2-(((3R,4S)-3-Fluoro-1-((3-(pyrrolidin-1-yl)propyl)sulfonyl)piperidin-4-yl)amino)-5-(trifluoromethyl)pyrimidin-4-yl)-1H-pyrazol-1-yl)-2-methylpropan-2-ol]
CC(C)(O)Cn1cc(-c2nc(N[C@H]3CCN(S(=O)(=O)CCCN4CCCCC4)C[C@H]3F)ncc2C(F)(F)F)cn1 [Example 204, 1-(4-(2-(((3R,4S)-3-Fluoro-1-((3-(piperidin-1-yl)propyl)sulfonyl)piperidin-4-yl)amino)-5-(trifluoromethyl)pyrimidin-4-yl)-1H-pyrazol-1-yl)-2-methylpropan-2-ol]
CN(C)CCCS(=O)(=O)N1CC[C@H](Nc2ncc(C(F)(F)F)c(-c3cnn(CC(C)(C)O)c3)n2)[C@H](F)C1 [Example 205, 1-(4-(2-(((3R,4S)-1-((3-(Dimethylamino)propyl)sulfonyl)-3-fluoropiperidin-4-yl)amino)-5-(trifluoromethyl)pyrimidin-4-yl)-1H-pyrazol-1-yl)-2-methylpropan-2-ol]
